Laboratory results: patent US20150196507A1, “CONTROL OF MILK PRODUCTION AND MAMMARY INVOLUTION” (Amelgo, LLC, priority 2009, published 2015)

How the values were obtained:
[1] = system: multiparous Holstein cows; experiment: Intramammary infusion at dry-off in Holstein cows (milk yield, milk composition, plasma lactose); type: in vivo, cow; details: for milk yield decline: day one following initiation of treatments, 5 mg in 5 ml carrier per quarter, control down 7.5 kg; for drop in amount of milk versus cows not receiving any infusion: after the first of three daily infusions, FIG. 6
Description: In a set of experiments, forty-five multiparous Holstein cows milked three times daily and producing at least 20 kg/day were randomly assigned to once a day milking and one of three intramammary treatments in each quarter for three days. A control group of fifteen cows received 5 ml of a carrier of 9:1 sterile water and oil via infusion. […] The third group of fifteen cows received a treatment of 5 ml the carrier containing 5 mg of the precursor for serotonin synthesis (5-HTP) via infusion.
The milk yield decline was greater for the second group (down 9.5 kg) and the third group (down 10.0 kg) than that of the first group (down 7.5 kg) on day one following the initiation of treatments (P<0.01).
The amount of milk dropped close to 10% for those cows receiving an infusion of 5-HTP versus cows not receiving any infusion.
Milk lactose, protein, and fat percentage were not affected by treatments, but the milk sodium to potassium ratio increased to 2.8 in the second group on day two as compared to 1.44 in the first group and 1.78 in the third group, (P<0.01).

[2] = system: cultures of mammary tissues taken from a lactating mouse; experiment: Trans-epithelial electrical resistance (TEER) of mouse mammary tissue cultures; type: cell-based; parameters: dose or concentration left out as unconfirmed; details: fluoxetine, measured at 48 hours
[3] = system: primary human breast epithelial cells; experiment: TEER of human mammary cultures; type: cell-based; details: for TEER change (FIG. 3): combination read at 36 hours
Text: FIG. 3 is a graphic illustration of a similar experiment performed on mammary gland cultures biopsied from primary human breast epithelial cells.

| Structure (SMILES) | milk yield decline ([1]; P<0.01) [kg] | drop in amount of milk versus cows not receiving any infusion ([1]; day two) [%] | milk sodium to potassium ratio ([1]; day two, first (control) group 1.44, P<0.01) | TEER change (FIG. 2) [2] | reduction in TEER ([3]; FIG. 3) [%] | plasma lactose increase compared to the other two groups ([1]; day 1 post-infusion, P<0.001) | TEER change (FIG. 3) [3] |
| --- | --- | --- | --- | --- | --- | --- | --- |
| N[C@@H](Cc1c[nH]c2ccc(O)cc12)C(=O)O [5-HTP, 5-hydroxytryptophan] | 10.0 | ~10 | 1.78 | – | – | – | – |
| CCN[C@@H](C)Cc1cccc(C(F)(F)F)c1 [dexfenfluramine] | – | – | – | decrease in TEER similar to that of the combination of phenelzine and fluoxetine | 50 | – | – |
| CNCCC(Oc1ccc(C(F)(F)F)cc1)c1ccccc1 (centres unmarked) [fluoxetine] | 9.5 | ~31 | – | – | – | increased two-fold | did not change TEER |
| NNCCc1ccccc1 [phenelzine] | – | – | – | small but significant increase in TEER | – | – | caused a decrease |
